Reference: EPA's ToxValDB 9.5 (doi:10.2903/j.efsa.2010.1913)

Columns and labels:
Apis mellifera = conditions: acute; oral; unspecified; mortality
Canidae = conditions: oral, Dog Other, organ weight
Colinus virginianus = conditions: acute; oral; mortality
Cyprinus carpio = conditions: acute; duration: 96 hours; mortality
Daphnia magna = conditions: chronic/long-term; duration: 21 days; reproduction
Mus musculus = conditions: oral
Tagia sp. = conditions: acute; duration: 14 days; mortality
Aphidius rhopalosiphi = assay: LR50; higher = less toxic; conditions: not reported; mortality
[1] = reproduction developmental, reproduction

For `CCNC(=O)[C@@H](C)OC(=O)Nc1ccccc1` [Carbetamide], the LD50 (Apis mellifera) was greater than 63.2 µg/piece, the NOAEL (Canidae; chronic, duration: 1 years) was 30 mg/kg-day and the NOAEL (Canidae; subchronic, duration: 90 days) was 30 mg/kg-day. It also gave an LD50 (Colinus virginianus) greater than 2000 mg/kg-day, an LC50 (Coturnix japonica; acute, oral, diet, mortality) greater than 1040 mg/kg-day and an NOEC (Coturnix japonica; [1]) of 169 mg/kg-day. The LC50 (Cyprinus carpio) was greater than 100 µg/mL, the NOEC (Daphnia magna) was 1 mg/L and the LD50 (Mus musculus; acute, mortality) was 1720 mg/kg-day. The NOEL (Mus musculus; chronic, duration: 104 weeks, histopathology: neoplastic) was 21 mg/kg-day, the LC50 (Oncorhynchus mykiss; acute, duration: 96 hours, mortality) was greater than 100 µg/mL and the NOEC (Oncorhynchus mykiss; chronic/long-term, duration: 21 days, growth) was greater than 100 mg/L. The LD50 (Rattus norvegicus; acute, oral, mortality) was greater than 2000 mg/kg-day, the NOAEL (Rattus norvegicus; chronic, duration: 2 years, oral, histopathology: nonneoplastic) was 6 mg/kg-day and the NOAEL (Rattus norvegicus; [1]) was 208 mg/kg-day. For the same molecule, the NOAEL (Rattus norvegicus; subchronic, duration: 90 days, oral, histopathology: nonneoplastic) was 12.5 mg/kg-day, the LC50 (Tagia sp.) was 660 mg/kg and the LR50 (Aphidius rhopalosiphi) was greater than 3020 g/ha.
